# Literature values as cited in US20050038042A1, “Modified release composition comprising a short-acting hypnotic for treatment of sleep disorders” (priority 2002, published 2005).
# How the values were obtained:
# [1] = compared with marketed benzodiazepines
# [2] = in humans
compound,measurement,setting,value
"CCN(C(C)=O)c1cccc(-c2ccnc3c(C#N)cnn23)c1 [Zaleplon, N-[3-(3-cyanopyrazolo[1,5-a]pyrimidin-7-yl)phenyl]-N-ethylacetamide]",effect on sleep onset,clinical trials,effective in shortening sleep onset
same,safety profile,"clinical trials, versus previously available benzodiazepine or nonbenzodiazepine hypnotics",more favorable safety profile
same,period over which decreased time to sleep onset was shown,controlled clinical studies,up to 28 days
same,mean duration of effect,"human, in vivo",4 to 5 h
same,total sleep time / number of awakenings,patients with sleep disorders,not been shown to consistently increase total sleep time or decrease the number of awakenings
same,effects in animal models,[1],"sedative, anxiolytic, myorelaxant, and anticonvulsive effects similar to those of marketed benzodiazepines"
same,time to maximum plasma concentration (tmax),[2],48 min
